Measured values taken from article PMC11327210, “A first-in-human phase I trial of daily oral zelenirstat, a N-myristoyltransferase inhibitor, in patients with advanced solid tumors and relapsed/refractory B-cell lymphomas” (Investigational New Drugs, 2024).

Experiments:
[1] = tested on: cell line and patient derived xenograft models of AML; parameters: method as in doi:10.1182/blood-2022-170544; conditions: cited from earlier work
[2] = tested on: advanced solid tumors and relapsed/refractory (R/R) B-cell lymphomas; test: Anticancer activity in phase I patients (RECIST 1.1 / Lugano, Kaplan-Meier); type: in vivo, human; conditions: for No. of patients with best response SD: evaluable patients n = 24
Experimental: Tumor response assessments using CT imaging were performed every two cycles. RECIST 1.1 [11] or the Lugano Response Criteria for Lymphoma was used to determine tumor response and disease progression. For B-cell NHL patients with PET-CT at baseline, PET-CT was repeated after the sixth cycle to confirm complete response or disease progression. Patient archival specimens and blood samples were submitted for exploratory molecular analyses. Descriptive statistics were used for demographic, safety, and efficacy data. Categorical data were summarized using frequency counts and percentages. Time-to-event variables were analyzed by Kaplan-Meier methods. Weighted trajectory analysis for health outcomes used the Chauhan methodology.

[3] = parameters: method as in Pacylex, data on file; conditions: preclinical models; ref Pacylex, data on file; cited from earlier work
[4] = parameters: method as in doi:10.1182/blood-2019-124934; conditions: multiple daily oral administration; cited from earlier work
[5] = tested on: cultured human cancer cells; parameters: method as in PMID 33093447; conditions: wide variety of cultured human cancer cells; cited from earlier work
[6] = tested on: CYP3A4; parameters: method as in Pacylex, data on file; conditions: preclinical models; ref Pacylex, data on file; cited from earlier work
[7] = tested on: patient derived xenograft models of refractory DLBCL; parameters: method as in PMID 33093447; conditions: cited from earlier work
[8] = tested on: rats; conditions: rat, in vivo; cited from earlier work
[9] = clinical; conditions: human, in vivo; for AUC(0-t): AUC0 − 24 (h*ng/mL) (mean, SD); for Cmax: Cmax (ng/ml) (mean, SD)
Experimental: Peripheral blood samples were collected over six time points in the first 8 h of Cycle 1, Day 1 (C1D1), and again on C1D15. Pre-treatment Day 1 levels were obtained with every subsequent cycle.

[10] = tested on: patients with advanced solid tumors and relapsed/refractory (R/R) B-cell lymphomas; test: Phase I dose escalation: safety, DLT, MTD/RP2D (NCI-CTCAE v5.0); type: in vivo; conditions: for Grade ≥ 3 treatment-related adverse events: Hypophosphatemia / Grade ≥ 3 treatment-related adverse events: Metabolism and nutrition disorders / Grade ≥ 3 treatment-related adverse events: Nausea / No. of pts with Gr ≥ 3 TRAEs: daily oral
Description: A standard 3 + 3 design was used to assess for MTD and establish RP2D according to a pre-determined dose-escalation schema (Table 1). There was no intra-patient dose escalation. The MTD was defined as the dose level below the cohort in which 2 or more patients experienced a first cycle, zelenirstat attributable, dose-limiting toxicity (DLT), and the MTD required confirmation in at least 6 patients.
DLT was defined as any of the following: Grade (Gr) 4 thrombocytopenia, Gr 3 thrombocytopenia with bleeding, Gr 4 neutropenia ≥ 7 days, febrile neutropenia, clinically significant ≥ Gr 3 non-hematologic toxicity, or any significant toxicity warranting a withhold of zelenirstat. […] Toxicity was graded according to the National Cancer Institute Common Toxicity Criteria for Adverse Events (NCI-CTCAE) version 5.0.
For dose escalation, patients received daily oral zelenirstat on 28-day cycles. It was administered as 10 mg and 70 mg capsules, with instructions to take on an empty stomach each morning with 250 ml of tap water. Patients received zelenirstat until progressive disease, unacceptable toxicity, or withdrawal of consent.
Baseline imaging and hematology and blood chemistry were obtained within 4 weeks and 1 week of study entry, respectively. Baseline screening included a complete medical history, physical examination, assessment of ECOG performance status, and body weight. CT imaging was used for advanced solid tumors and B-cell NHL; PET-CT was optional for B-cell NHL. Weekly complete blood counts with white blood cell differentiation and blood chemistries were drawn for the first cycle, biweekly for cycle 2, and then prior to each 28-day cycle. Adverse events were evaluated weekly in the first cycle, biweekly for cycle 2, and before each subsequent cycle using the NCI-CTCAE version 5.0.

[11] = MTD cohort 210 mg daily (n = 7) vs lower dose cohorts (n = 17)
[12] = oral once daily, 28-day cycles, patients

Question: Which results are given for Cc1c(NS(=O)(=O)c2c(Cl)cc(-c3ccnc(N4CCNCC4)c3)cc2Cl)c(CC(C)C)nn1C [zelenirstat]?
Answer: xenograft tumor response [1]: similarly profound remissions; Overall Survival (Kaplan-Meier) [2, 11]: statistically significantly longer overall survival; Progression-Free Survival (Kaplan-Meier) [2, 11]: statistically significantly longer PFS; objective responses ([2]; all dose cohorts): No objective responses; No. of patients with best response SD ([2]; dose level 2: 40 mg, pancreatic adenocarcinoma): 1; No. of patients with best response SD ([2]; dose level 5: 140 mg, CRC): 1; No. of patients with best response SD ([2]; dose level 6: 210 mg, CRC (2), ovarian (2), appendiceal carcinoma): 5; No. of patients with best response SD ([2]; dose level 7: 280 mg, after DLT modified to 210 mg daily, bladder): 1; Stable disease as best response, patients ([2]; eight of 29 patients, all dose cohorts): 28%; reduction in serum carcinoembryonic antigen (CEA) level ([2]; one patient, metastatic colon adenocarcinoma, 210 mg): 48%; duration on zelenirstat ([2]; one patient, metastatic colon adenocarcinoma, 210 mg, SD, continuing): ≥ 420 days; reduction in sum of longest dimensions of the target lesions ([2]; one patient, metastatic colon adenocarcinoma, 210 mg, ongoing): 13%; reduction in cancer antigen 125 (CA125) ([2]; one patient, refractory ovarian cancer, 210 mg): 20%; oral bioavailability [3]: high oral bioavailability; dose limiting toxicity in GLP non-clinical safety testing [4]: diarrhea was dose limiting; effect on cultured human cancer cells [5]: cytotoxic or cytostatic; metabolism [6]: metabolized in the liver primarily by CYP3A4; xenograft tumor response [7]: profound tumor regression and complete remissions; toxicities in formal toxicologic evaluation [8]: acute gastrointestinal and hematologic toxicities; half-life ([9]; half-life values across the dose cohorts): 7.67 to 12 h; Tmax ([9]; maximum Tmax value in patients taking PPI): ~8 h; half-life ([9]; mean terminal half-life across the dose cohorts): 6.7 to 9.5 h; Tmax ([9]; median Tmax range in patients taking proton pump inhibitors (PPI)): 1 to 6 h; AUC(0-t) ([9]; po, 20 mg): 1580 ng·h/mL; Cmax ([9]; po, 20 mg): 359 ng/mL; Tmax ([9]; po, 20 mg, Tmax (h) (median, range)): 2 h; half-life ([9]; po, 20 mg, t1/2 (h) (mean, SD)): 6.7 h; AUC(0-t) ([9]; po, 40 mg): 4820 ng·h/mL; Cmax ([9]; po, 40 mg): 848 ng/mL; half-life ([9]; po, 40 mg, t1/2 (h) (mean, SD)): 9.2 h; AUC(0-t) ([9]; po, 70 mg): 5650 ng·h/mL; Cmax ([9]; po, 70 mg): 665 ng/mL; Tmax ([9]; po, 70 mg, Tmax (h) (median, range)): 3.9 h; half-life ([9]; po, 70 mg, t1/2 (h) (mean, SD)): 9.5 h; AUC(0-t) ([9]; po, 100 mg): 24700 ng·h/mL; Cmax ([9]; po, 100 mg): 2300 ng/mL; Tmax ([9]; po, 100 mg, Tmax (h) (median, range)): 4 h; half-life ([9]; po, 100 mg, t1/2 (h) (mean, SD)): 12 h; AUC(0-t) ([9]; po, 140 mg): 11900 ng·h/mL; Cmax ([9]; po, 140 mg): 1770 ng/mL; Tmax ([9]; po, 140 mg, Tmax (h) (median, range)): 1 h; half-life ([9]; po, 140 mg, t1/2 (h) (mean, SD)): 7.2 h; AUC(0-t) ([9]; po, 210 mg): 14700 ng·h/mL; Cmax ([9]; po, 210 mg): 1770 ng/mL; Tmax ([9]; po, 210 mg, Tmax (h) (median, range)): 3 h; half-life ([9]; po, 210 mg, t1/2 (h) (mean, SD)): 7.8 h; Tmax ([9]; po, median Tmax values across the dose cohorts): 1 to 4 h; half-life ([9]; po, terminal half-lives, average): 10 h; Tmax ([9]; po, time of peak plasma concentrations): 2 h; Grade ≥ 3 treatment-related adverse events: Hypophosphatemia ([10]; 20 mg (N = 3)): 0 n, %; Grade ≥ 3 treatment-related adverse events: Metabolism and nutrition disorders ([10]; 20 mg (N = 3)): 0 n, %; Grade ≥ 3 treatment-related adverse events: Nausea ([10]; 20 mg (N = 3)): 0 n, %; No. of pts with Gr ≥ 3 TRAEs ([10]; 20 mg (N = 3)): 0 n, %; Grade ≥ 3 treatment-related adverse events: Hypophosphatemia ([10]; 40 mg (N = 3)): 0 n, %; Grade ≥ 3 treatment-related adverse events: Metabolism and nutrition disorders ([10]; 40 mg (N = 3)): 0 n, %; Grade ≥ 3 treatment-related adverse events: Nausea ([10]; 40 mg (N = 3)): 0 n, %; No. of pts with Gr ≥ 3 TRAEs ([10]; 40 mg (N = 3)): 0 n, %; Grade ≥ 3 treatment-related adverse events: Hypophosphatemia ([10]; 70 mg (N = 3)): 0 n, %; Grade ≥ 3 treatment-related adverse events: Metabolism and nutrition disorders ([10]; 70 mg (N = 3)): 0 n, %; Grade ≥ 3 treatment-related adverse events: Nausea ([10]; 70 mg (N = 3)): 0 n, %; No. of pts with Gr ≥ 3 TRAEs ([10]; 70 mg (N = 3)): 1 (33) n, %; Grade ≥ 3 treatment-related adverse events: Hypophosphatemia ([10]; 100 mg (N = 5)): 0 n, %; Grade ≥ 3 treatment-related adverse events: Metabolism and nutrition disorders ([10]; 100 mg (N = 5)): 0 n, %; Grade ≥ 3 treatment-related adverse events: Nausea ([10]; 100 mg (N = 5)): 0 n, %; No. of pts with Gr ≥ 3 TRAEs ([10]; 100 mg (N = 5)): 0 n, %; Grade ≥ 3 treatment-related adverse events: Hypophosphatemia ([10]; 140 mg (N = 3)): 0 n, %; Grade ≥ 3 treatment-related adverse events: Metabolism and nutrition disorders ([10]; 140 mg (N = 3)): 0 n, %; Grade ≥ 3 treatment-related adverse events: Nausea ([10]; 140 mg (N = 3)): 0 n, %; No. of pts with Gr ≥ 3 TRAEs ([10]; 140 mg (N = 3)): 0 n, %; Grade ≥ 3 treatment-related adverse events: Hypophosphatemia ([10]; 210 mg (N = 7)): 0 n, %; Grade ≥ 3 treatment-related adverse events: Metabolism and nutrition disorders ([10]; 210 mg (N = 7)): 0 n, %; Grade ≥ 3 treatment-related adverse events: Nausea ([10]; 210 mg (N = 7)): 0 n, %; No. of pts with Gr ≥ 3 TRAEs ([10]; 210 mg (N = 7)): 0 n, %; Grade ≥ 3 treatment-related adverse events: Hypophosphatemia ([10]; 280 mg (N = 5)): 1 (20) n, %; Grade ≥ 3 treatment-related adverse events: Metabolism and nutrition disorders ([10]; 280 mg (N = 5)): 1 (20) n, %; Grade ≥ 3 treatment-related adverse events: Nausea ([10]; 280 mg (N = 5)): 1 (20) n, %; No. of pts with Gr ≥ 3 TRAEs ([10]; 280 mg (N = 5)): 4 (80) n, %; evaluable patients with first cycle dose-limiting gastrointestinal toxicities ([10]; 280 mg daily cohort): Three; neuropathy ([10]; dose cohorts up to and including 210 mg): No neuropathy was reported; Gr 2 thrombocytopenia, patients ([10]; dose cohorts up to and including 210 mg, resolved despite continuation at full dose): 12%; maximum tolerated dose (MTD) [10, 12]: 210 mg; recommended phase 2 dose (RP2D) [10, 12]: 210 mg; drug-induced QT prolongation ([10]; pre- and post-dose ECG assessments, patients): no evidence of drug-induced QT prolongation; first cycle (or any cycle) DLTs ([10]; six evaluable patients, 210 mg per day cohort): absence of first cycle (or any cycle) DLTs
